Tested on: 3T3L1 cells
Assay: Lipolysis in 3T3L1 cells, glycerol release as biomarker
Format: cell-based
Conditions: positive control, time and concentration not given
Method: Pancreatic lipase activity was measured using 4-methylumbelliferyl oleate (MU Oleate) as a substrate via a fluorescence kinetic assay. 3T3L1 cells were treated with capsicum composition (100 μg/1111) at different time points such as 1 hour (h), 2 h, 4 h and 24 h. […] was used as the positive control. Lipolysis was assessed using glycerol release as a biomarker.
Capsicum composition enhanced the lipolysis after 24 h treatment. The ratio of released glycerol/protein content was 1.59, compared to the positive control:isoproterenol (ratio: 1.60).

CC(C)NCC(O)c1ccc(O)c(O)c1 (stereo not shown) [Isoproterenol]
Ratio treated/non treated (lipolysis): 1.60

— patent publication US10668123B2, “Capsicum compositions and uses thereof” (OmniActive Health Technologies Limited, priority 2015, dated 2020)
